Source: the NIST ThermoML archive (doi:10.1016/j.jct.2016.02.013)

What was measured:
[1] = for surface tension liquid-gas: Pendant drop shape; for electrical conductivity / viscosity / mass density: 101.33 kPa; for surface tension liquid-gas / electrical conductivity / viscosity / mass density: Liquid; for electrical conductivity: Alternating current cell with electrodes; for viscosity: Concentric cylinders viscometry; for mass density: Vibrating tube method
[2] = refractive index (Na D-line) (dimensionless); conditions: 101.33 kPa, Liquid, Standard Abbe refractometry

CC[n+]1cccc(C)c1.O=S(=O)([O-])C(F)(F)C(F)(F)C(F)(F)C(F)(F)F [1-ethyl-3-methylpyridinium perfluorobutanesulfonate]
[1]
Conditions | surface tension liquid-gas [mN/m]
298.3 K | 26.35
303.4 K | 26.16
313.4 K | 25.77
323.6 K | 25.39
332.9 K | 25.12
343 K | 24.7

CC[n+]1cccc(C)c1.O=C([O-])C(F)(F)C(F)(F)C(F)(F)C(F)(F)F [1-ethyl-3-methylpyridinium perfluoropentanoate]
Conditions | electrical conductivity, [1] [S/m] | mass density, [1] [kg/m3] | refractive index, [2] | surface tension liquid-gas, [1] [mN/m] | viscosity, [1] [mPa·s]
293.15 K | 0.0915 | 1458.7 | 1.42282 | – | 196
298.15 K | 0.12 | 1453.6 | 1.42137 | – | 147.1
298.3 K | – | – | – | 26.83 | –
303.15 K | 0.155 | 1448.6 | 1.4199 | – | 110.8
308.15 K | 0.194 | 1443.6 | 1.41844 | – | 85.39
308.2 K | – | – | – | 26.49 | –
313.15 K | 0.239 | 1438.7 | 1.41697 | – | 67.81
317.9 K | – | – | – | 26.07 | –
318.15 K | 0.289 | 1433.7 | 1.41553 | – | 53.67
323.15 K | 0.355 | 1428.9 | 1.41406 | – | 43.6
328 K | – | – | – | 25.71 | –
328.15 K | – | 1424 | 1.4126 | – | 35.94
333.15 K | – | 1419.2 | 1.41114 | – | 30.35
338 K | – | – | – | 25.31 | –
338.15 K | – | 1414.3 | 1.40955 | – | 25.32
343.15 K | – | 1409.4 | 1.40811 | – | 21.61
347 K | – | – | – | 24.94 | –
348.15 K | – | 1404.5 | 1.40672 | – | 18.61
353.15 K | – | 1399.5 | 1.40531 | – | 16.39

Conditions | Normal melting temperature [°C]
[1], Crystal, DTA | 2

CCCC[N+](CCCC)(CCCC)CCCC.O=S(=O)([O-])C(F)(F)C(F)(F)C(F)(F)C(F)(F)C(F)(F)C(F)(F)C(F)(F)C(F)(F)F [tetrabutylammonium heptadecafluorooctanesulfonate]
[1]
Conditions | surface tension liquid-gas [mN/m]
298.4 K | 21.98
303.2 K | 21.6
313.3 K | 21.11
323.2 K | 20.65
333.2 K | 20.14
343 K | 19.55

CCCC[N+](CCCC)(CCCC)CCCC.O=S(=O)([O-])C(F)(F)C(F)(F)C(F)(F)C(F)(F)F [tetrabutylammonium perfluorobutanesulfonate]
[1]
Conditions | surface tension liquid-gas [mN/m]
333.1 K | 22.77
338 K | 22.57
343.1 K | 22.36
348.3 K | 22.2
353.4 K | 21.95
